Test system: wheat rust fungus (Puccinia recondita)
Assay: Test Example 2: wheat rust, foliar spray before inoculation
Type: in vivo
Settings: 500 ppm foliar spray on wheat (Shirogane), inoculated 5 days after spraying, formulated per Formulation Example 6

## COC(=O)Nc1ccccc1COc1ccc(-c2ccccn2)cc1 [methyl N-(2-{[4-(pyridine-2-yl)phenoxy)methyl}phenyl)carbamate]
  area of the lesion relative to untreated wheat: ≥ 70%

Source: patent US10383333B2, “Carbamate compound and use thereof” (SUMITOMO CHEMICAL COMPANY, LIMITED, priority 2015, dated 2019)
